System: LXRα/β binding to the LXRE within the ABCA1 promoter region
Experiment: ChIP assay in HaCaT keratinocytes
Assay type: cell-based, human
Details: 10^–7 M, 24 h
From the text: We followed protocols described in Ref.[40]. […] The cells were harvested and in vivo crosslinking, lysis and sonication of the chromatin, as well as following steps of ChIP assay, were done using Magna ChiP G Kit 0002 (Millipore). […] The purified DNA fragments were PCR amplified with the following sequence of PCR primers for human ABCA1 LXR-responsive element (LXRE): Forward: [NT], Reverse: [NT] and for human GAPDH as a reference gene: Forward: [NT], Reverse: [NT] (Eurofins Genomics). The PCR reaction was performed using Dream Taq Green PCR Master Mix (2×) (Thermo Scientific, cat. no. K1081) according to the following procedure: initial denaturation: 95 °C for 3 min; denaturation: 95 °C for 30 s (× 35 cycles); annealing: 58 °C for 30 s (× 35 cycles in the same cycles with denaturation); extension: 72 °C for 1 min; final extension: 72 °C for 15 min. The detection of amplification product was done by standard agarose gel electrophoresis with EtBr using Invitrogen iBright CL1000 Imaging System, with # SM Gene Ruler 1 kb Plus DNA Ladder (Thermo Scientific) as a marker.

C=C1/C(=C\C=C2/CCC[C@]3(C)[C@@H]([C@H](C)CCCC(C)(C)O)CC[C@@H]23)C[C@@H](O)C[C@@H]1O [1,25(OH)2D3, reference compound]
LXRα/β binding to the LXRE within the ABCA1 promoter region (ChIP): significant stimulation

Reference: PMC8044163, “Vitamin D and lumisterol derivatives can act on liver X receptors (LXRs)” (Scientific Reports, 2021)
